{"source": "patent US10603289B2", "about": "“Process for the manufacture of ajoene derivatives” (DANMARKS TEKNISKE UNIVERSITET, priority 2010, dated 2020)", "key": {"[1]": {"test_system": "P. aeruginosa genes", "assay": "DNA microarray, number of genes regulated by ajoene treatment", "type": "cell-based", "procedure": "(§1) DNA microarray analysis was used to identify genes regulated by ajoene treatment. As a reference we have used the QS regulon previously identified by Hentzer et al., [M. Hentzer et al., EMBO J., 2003, 22, p. […] Exponential growing P. aeruginosa cultures were treated with the following four concentrations of ajoene; 10 μg/ml (42.7 μM), 20 μg/ml (85.4 μM), 40 μg/ml (170.8 μM) and 80 μg/ml (341.6 μM). (E,Z) ajoene having an E:Z ratio of 1:4 was used. […] The samples were retrieved at an OD600 nm of 2.0 (optical density) because previous investigations have shown the highest activity among the QS genes at that cell density. Gene expression of the treated cultures was compared to an untreated control.\nIn general, there was only a small number of genes that were down regulated more than 5 fold by the four different concentrations of ajoene; 0 genes at 10 μg/ml ajoene, 0 genes at 20 μg/ml ajoene, 2 genes at 40 μg/ml ajoene and 11 genes at 80 μg/ml ajoene. […] According to our experimental settings, expression of 10 out of the total number of 163 QS controlled P. aeruginosa genes (according to Hentzer et al., [M. Hentzer et al., EMBO J., 2003, 22, p. 3803-3815]) was down regulated by the ajoene treatments. A concentration of 80 μg/ml ajoene affects expression of 11 out of a total of 5570 P. aeruginosa genes. Ajoene is therefore highly specific for a subclass of QS controlled genes (Table 3)."}, "[2]": {"test_system": "PA0852 cbpD", "assay": "DNA microarray, gene expression in ajoene treated P. aeruginosa cultures", "type": "cell-based", "settings": "E:Z 1:4, OD600 2.0", "procedure": "as §1"}, "[3]": {"test_system": "PA1871 lasA", "assay": "DNA microarray, gene expression in ajoene treated P. aeruginosa cultures", "type": "cell-based", "settings": "E:Z 1:4, OD600 2.0", "procedure": "as §1"}, "[4]": {"test_system": "PA2146", "assay": "DNA microarray, gene expression in ajoene treated P. aeruginosa cultures", "type": "cell-based", "settings": "E:Z 1:4, OD600 2.0", "procedure": "as §1"}, "[5]": {"test_system": "PA2570 pa1L", "assay": "DNA microarray, gene expression in ajoene treated P. aeruginosa cultures", "type": "cell-based", "settings": "pa1L PA2570 (LecA), E:Z 1:4, OD600 2.0", "procedure": "as §1"}, "[6]": {"test_system": "PA3478 rhlB", "assay": "DNA microarray, gene expression in ajoene treated P. aeruginosa cultures", "type": "cell-based", "settings": "E:Z 1:4, OD600 2.0", "procedure": "as §1"}, "[7]": {"test_system": "PA3479 rhlA", "assay": "DNA microarray, gene expression in ajoene treated P. aeruginosa cultures", "type": "cell-based", "settings": "E:Z 1:4, OD600 2.0", "procedure": "as §1"}, "[8]": {"test_system": "PA4141", "assay": "DNA microarray, gene expression in ajoene treated P. aeruginosa cultures", "type": "cell-based", "settings": "E:Z 1:4, OD600 2.0", "procedure": "as §1"}, "[9]": {"test_system": "PA4175 prpL", "assay": "DNA microarray, gene expression in ajoene treated P. aeruginosa cultures", "type": "cell-based", "settings": "E:Z 1:4, OD600 2.0", "procedure": "as §1"}, "[10]": {"test_system": "lasB", "assay": "DNA microarray, gene expression in ajoene treated P. aeruginosa cultures", "type": "cell-based", "settings": "ajoene 10-80 μg/ml", "procedure": "as §1"}, "[11]": {"test_system": "P. aeruginosa cultures", "assay": "Growth inhibitory effect on exponential growing cultures", "type": "cell-based", "settings": "10, 20, 40 and 80 μg/ml ajoene; E:Z 1:4", "procedure": "as §1"}, "[12]": {"test_system": "wild-type P. aeruginosa", "assay": "Foreign-body (silicone tube implant) infection model", "type": "in vivo, mice", "procedure": "To examine the effect of a combination treatment with ajoene and tobramycin in vivo we used an foreign-body infection model [L. D. Christensen et al., Microbiology, 2007, 153, p. 2312-2320]. Silicone tube implants with a size of 4 mm (inner diameter 4 mm/outer diameter 6 mm) pre-colonized with wild-type P. aeruginosa, were inserted into the peritoneal cavity of mice. Treatments were injected subcutaneously every 24 hours, where ajoene and tobramycin treatment were initiated two days pre-insertion and 24 hours post-insertion, respectively. 72 hours after insertion the implants were removed from the mice and the number of colony-forming units per implant was determined. […] (E,Z) ajoene having an E:Z ratio of 1:4 was used."}, "[13]": {"test_system": "P. aeruginosa PAO1", "type": "in vivo", "procedure": "Mice were sacrificed on day one or day three post-infection and the contents of bacteria in the lungs were determined. Open squares indicate bacterial lung content per lung for each individual mouse. The median values are indicated with a filled black square. The statistic significance of difference in clearance was tested by a Mann-Whitney U test (analysis of nonparametric data) and p-values for the difference at day one and day three were 0.9 and 0.002 respectively.\nIn this study ajoene was administered prophylactic and subsequently continued after infection. Injections were given subcutaneous in the peritoneum. We performed three individual in vivo treatment experiments with ajoene in the mouse model of pulmonary infection using the P. aeruginosa PAO1. BALB/c mice were intracheally challenged (at day 0) with alginate beads containing 1.5×10^8 CFU/ml P. aeruginosa. The two groups of mice were either untreated (placebo) or treated with ajoene 25 μg/g mouse once a day. The mice were given two days of prophylactic treatment or placebo prior to bacterial challenge. Treatment was continued for three days. […] When combining the experiments a significant difference on day three was seen (p<0.002) with a 500 fold difference in clearance between the groups (FIG. 7). This is concordant with the results obtained by Bjarnsholt et al (2005) in a similar lung infection model in with raw garlic extract was used as treatment [T. Bjarnsholt et al., Microbiology, 2005, 151, p. 3873-3880].\nThis highlights that a synthesis providing a sufficiently pure “crude” ajoene product is essential in order to avoid the use of HPLC purification, as this step has a detrimental effect on biological activity. […] (E,Z) ajoene having an E:Z ratio of 1:4 was used."}, "[14]": {"test_system": "P. aeruginosa", "settings": "E:Z=1:4 isomer used; cited from earlier work"}, "[15]": {"test_system": "Gram positive bacteria", "settings": "E:Z=1:4 isomer used; cited from earlier work"}, "[16]": {"test_system": "Gram negative bacteria", "settings": "E:Z=1:4 isomer used; cited from earlier work"}}}
{"smiles": "C=CCSSC=CC[S+]([O-])CC=C", "note": "(stereo not shown) [ajoene, (E,Z)-4,5,9-trithiadodeca-1,6,11-triene-9-oxide]", "values": [{"measurement": "number of genes down regulated more than 5 fold", "setting": "[1]; 10 μg/ml ajoene", "value": 0, "unit": "genes"}, {"measurement": "number of genes down regulated more than 5 fold", "setting": "[1]; 20 μg/ml ajoene", "value": 0, "unit": "genes"}, {"measurement": "number of genes down regulated more than 5 fold", "setting": "[1]; 40 μg/ml ajoene", "value": 2, "unit": "genes"}, {"measurement": "number of genes down regulated more than 5 fold", "setting": "[1]; 80 μg/ml ajoene, out of a total of 5570 P. aeruginosa genes", "value": 11, "unit": "genes"}, {"measurement": "number of QS controlled P. aeruginosa genes down regulated by the ajoene treatments", "setting": "[1]; out of the total number of 163 QS controlled genes (Hentzer et al.)", "value": 10, "unit": "genes"}, {"measurement": "fold change in gene expression compared to an untreated control", "setting": "[2]; [Ajoene] 10 μg/ml", "value": "−2.8", "unit": "fold"}, {"measurement": "fold change in gene expression compared to an untreated control", "setting": "[2]; [Ajoene] 20 μg/ml", "value": "−2.5", "unit": "fold"}, {"measurement": "fold change in gene expression compared to an untreated control", "setting": "[2]; [Ajoene] 40 μg/ml", "value": "−3.9", "unit": "fold"}, {"measurement": "fold change in gene expression compared to an untreated control", "setting": "[2]; [Ajoene] 80 μg/ml", "value": "−6.9", "unit": "fold"}, {"measurement": "fold change in gene expression compared to an untreated control", "setting": "[3]; [Ajoene] 10 μg/ml", "value": "−2.6", "unit": "fold"}, {"measurement": "fold change in gene expression compared to an untreated control", "setting": "[3]; [Ajoene] 20 μg/ml", "value": "−2.2", "unit": "fold"}, {"measurement": "fold change in gene expression compared to an untreated control", "setting": "[3]; [Ajoene] 40 μg/ml", "value": "−3.0", "unit": "fold"}, {"measurement": "fold change in gene expression compared to an untreated control", "setting": "[3]; [Ajoene] 80 μg/ml", "value": "−8.7", "unit": "fold"}, {"measurement": "fold change in gene expression compared to an untreated control", "setting": "[4]; [Ajoene] 10 μg/ml", "value": "−1.3", "unit": "fold"}, {"measurement": "fold change in gene expression compared to an untreated control", "setting": "[4]; [Ajoene] 20 μg/ml", "value": "−1.8", "unit": "fold"}, {"measurement": "fold change in gene expression compared to an untreated control", "setting": "[4]; [Ajoene] 40 μg/ml", "value": "−2.6", "unit": "fold"}, {"measurement": "fold change in gene expression compared to an untreated control", "setting": "[4]; [Ajoene] 80 μg/ml", "value": "−7.3", "unit": "fold"}, {"measurement": "fold change in gene expression compared to an untreated control", "setting": "[5]; [Ajoene] 10 μg/ml", "value": "−1.8", "unit": "fold"}, {"measurement": "fold change in gene expression compared to an untreated control", "setting": "[5]; [Ajoene] 20 μg/ml", "value": "−2.0", "unit": "fold"}, {"measurement": "fold change in gene expression compared to an untreated control", "setting": "[5]; [Ajoene] 40 μg/ml", "value": "−3.3", "unit": "fold"}, {"measurement": "fold change in gene expression compared to an untreated control", "setting": "[5]; [Ajoene] 80 μg/ml", "value": "−6.3", "unit": "fold"}, {"measurement": "fold change in gene expression compared to an untreated control", "setting": "[6]; [Ajoene] 10 μg/ml", "value": "−2.6", "unit": "fold"}, {"measurement": "fold change in gene expression compared to an untreated control", "setting": "[6]; [Ajoene] 20 μg/ml", "value": "−2.0", "unit": "fold"}, {"measurement": "fold change in gene expression compared to an untreated control", "setting": "[6]; [Ajoene] 40 μg/ml", "value": "−3.3", "unit": "fold"}, {"measurement": "fold change in gene expression compared to an untreated control", "setting": "[6]; [Ajoene] 80 μg/ml", "value": "−8.7", "unit": "fold"}, {"measurement": "fold change in gene expression compared to an untreated control", "setting": "[7]; [Ajoene] 10 μg/ml", "value": "−2.2", "unit": "fold"}, {"measurement": "fold change in gene expression compared to an untreated control", "setting": "[7]; [Ajoene] 20 μg/ml", "value": "−1.5", "unit": "fold"}, {"measurement": "fold change in gene expression compared to an untreated control", "setting": "[7]; [Ajoene] 40 μg/ml", "value": "−2.6", "unit": "fold"}, {"measurement": "fold change in gene expression compared to an untreated control", "setting": "[7]; [Ajoene] 80 μg/ml", "value": "−8.8", "unit": "fold"}, {"measurement": "fold change in gene expression compared to an untreated control", "setting": "[8]; [Ajoene] 10 μg/ml", "value": "−1.0", "unit": "fold"}, {"measurement": "fold change in gene expression compared to an untreated control", "setting": "[8]; [Ajoene] 20 μg/ml", "value": "−1.1", "unit": "fold"}, {"measurement": "fold change in gene expression compared to an untreated control", "setting": "[8]; [Ajoene] 40 μg/ml", "value": "−1.3", "unit": "fold"}, {"measurement": "fold change in gene expression compared to an untreated control", "setting": "[8]; [Ajoene] 80 μg/ml", "value": "−5.4", "unit": "fold"}, {"measurement": "fold change in gene expression compared to an untreated control", "setting": "[9]; [Ajoene] 10 μg/ml", "value": "−3.7", "unit": "fold"}, {"measurement": "fold change in gene expression compared to an untreated control", "setting": "[9]; [Ajoene] 20 μg/ml", "value": "−3.3", "unit": "fold"}, {"measurement": "fold change in gene expression compared to an untreated control", "setting": "[9]; [Ajoene] 40 μg/ml", "value": "−5.3", "unit": "fold"}, {"measurement": "fold change in gene expression compared to an untreated control", "setting": "[9]; [Ajoene] 80 μg/ml", "value": "−6.8", "unit": "fold"}, {"measurement": "down regulation of lasB (DNA microarray)", "setting": "[10]", "value": "not more than 5 fold"}, {"measurement": "growth inhibitory effects", "setting": "[11]", "value": "do not exert any growth inhibitory effects"}, {"measurement": "clearing of implants, single treatment versus placebo group", "setting": "[12]; CFU per implant 72 hours after insertion", "value": "significant difference in clearing"}, {"measurement": "clearing of implants, between the two single treatment groups", "setting": "[12]; ajoene versus tobramycin", "value": "no significant difference in clearing"}, {"measurement": "difference in clearance between treated and placebo groups", "setting": "[13]; day three, 25 μg/g mouse once a day subcutaneous, two days prophylactic, three experiments combined", "value": 500, "unit": "fold"}, {"measurement": "tolerability of the administered dosage", "setting": "[13]; mouse, in vivo", "value": "tolerated well"}, {"measurement": "growth inhibitory effect on P. aeruginosa", "setting": "[14]", "value": "no measurable growth inhibitory effect"}, {"measurement": "growth inhibition of Gram positive bacteria", "setting": "[15]", "value": "strong growth inhibitor"}, {"measurement": "inhibitory effect on Gram negative bacteria", "setting": "[16]", "value": "varied inhibitory effect"}]}
